Data: patent US12532889B2, “Herbicidal compositions comprising glufosinate” (BASF SE, priority 2023, dated 2026)
“And” between values parts separate entries of the source, which are not always exact repeats. Identical values can stand only once.

How the values were obtained:
Assay in all cases: Post-emergence application in field trials (Example A)
Assay type in all cases: in vivo
[1] = system: ECHCG (Echinocloa crus-galli); settings: for % herbicidal activity: Table 6.1, ECHCG growth stage 23-30, height 15-20 cm, 7 DAT, 200 l/ha water
In short: (§1)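 Post-emergence field spray, natural or sown weeds; solo and tank-mix treatments. Visual damage 0% (none) to 100% (complete kill) vs untreated control at indicated DAT. Colby E = expected additive effect; observed above E = synergy.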

[2] = system: HORVW (Hordeum vulgare (winter barley))
In short: as §1

[3] = system: DIGSA (Digitaria sanguinalis); settings: for % Herbicidal activity: A-1 12.5 g ai/ha, growth stage 22
In short: as §1

BIDPI (Bidens pilosa) = settings: Table 1.14; BIDPI height 20-45 cm; A-1 50, B-2 400 g ai/ha; 21 DAT; water 100 l/ha
In short: as §1

[4] = system: HORVS (Hordeum vulgare (spring barley)); settings: Table 3.1, HORVS volunteer barley, growth stage 22-24, height 32-35 cm, 28 DAT, water 100 l/ha
In short: as §1

ZEAMX (Zea mays) = system: ZEAMX (Zea mays)
In short: as §1

[5] = system: LOLMU (Lolium multiflorum)
In short: as §1

[6] = 7 DAT, A-1 12.5 g ai/ha, growth stage 23-29, height 20-25 cm
[7] = 7 DAT, A-1 18 g ai/ha, growth stage 23-29, height 20-25 cm
[8] = 21 DAT, A-1 12.5 g ai/ha, growth stage 23-29, height 20-25 cm
[9] = 21 DAT, A-1 18 g ai/ha, growth stage 23-29, height 20-25 cm
[10] = 42 DAT, A-1 18 g ai/ha, growth stage 15-16, height 27-33 cm

## CCOC(=O)COc1ccccc1Oc1nc(-n2c(=O)cc(C(F)(F)F)n(C)c2=O)c(F)cc1Cl [A-1, ethyl 2-[2-[[3-chloro-5-fluoro-6-[3-methyl-2,6-dioxo-4-(trifluoromethyl)pyrimidin-1-yl]-2-pyridyl]oxy]phenoxy]acetate]
[1]; 28 DAT, A-1 18 g ai/ha, growth stage 23-30, height 15-20 cm
  % Herbicidal activity: 30%
[1]; A-1 12.5, B-6 150 g ai/ha
  % herbicidal activity: 20%
[1]; A-1 12.5, B-6 252 g ai/ha
  % herbicidal activity: 20%
[1]; A-1 18, B-6 150 g ai/ha
  % herbicidal activity: 30%
[1]; A-1 18, B-6 252 g ai/ha
  % herbicidal activity: 40%
[2]; [6]
  % Herbicidal activity: 60%
  % herbicidal activity: 60%
[2]; [7]
  % Herbicidal activity: 70%
  % herbicidal activity: 75%
[2]; [8]
  % Herbicidal activity: 90% and 60%
  % herbicidal activity: 70% and 60%
[2]; [9]
  % Herbicidal activity: 70%
  % herbicidal activity: 70% and 75%
[2]; Table 6.1, HORVW growth stage 23-29, height 20-25 cm, A-1 12.5, B-6 150 g ai/ha, 7 DAT, 200 l/ha water
  % herbicidal activity: 60%
[2]; Table 6.1, HORVW growth stage 23-29, height 20-25 cm, A-1 12.5, B-6 252 g ai/ha, 7 DAT, 200 l/ha water
  % herbicidal activity: 60%
[2]; Table 6.1, HORVW growth stage 23-29, height 20-25 cm, A-1 18, B-6 150 g ai/ha, 7 DAT, 200 l/ha water
  % herbicidal activity: 70%
[2]; Table 6.1, HORVW growth stage 23-29, height 20-25 cm, A-1 18, B-6 252 g ai/ha, 7 DAT, 200 l/ha water
  % herbicidal activity: 70%
[3]; 7 DAT, height 10-15 cm
  % Herbicidal activity: 75%
[3]; 21 DAT, height 10-15 cm
  % Herbicidal activity: 70%
[3]; 21 DAT, A-1 18 g ai/ha, growth stage 21-22, height 10-15 cm
  % herbicidal activity: 35%
[3]; 41 DAT, height 10-15 cm
  % Herbicidal activity: 55%
[3]; 42 DAT, height 10-15 cm
  % Herbicidal activity: 55%
[3]; Table 4.1, DIGSA height 2-8 cm, A-1 12.5, B-2 655 g ai/ha, 21 DAT, water 140 l/ha
  % herbicidal activity: 27%
[3]; Table 4.1, DIGSA height 2-8 cm, A-1 25, B-2 655 g ai/ha, 21 DAT, water 140 l/ha
  % herbicidal activity: 28%
[3]; Table 4.1, DIGSA height 2-8 cm, A-1 50, B-2 655 g ai/ha, 21 DAT, water 140 l/ha
  % herbicidal activity: 55%
[3]; Table 6.1, DIGSA growth stage 21-22, height 10-15 cm, A-1 18, B-6 252 g ai/ha, 7 DAT, 200 l/ha water
  % herbicidal activity: 40%
BIDPI (Bidens pilosa)
  % herbicidal activity: 74%
[4]; A-1 12.5, B-2 500 g ai/ha
  % herbicidal activity: 40%
[4]; A-1 18, B-2 500 g ai/ha
  % herbicidal activity: 85%
ZEAMX (Zea mays); 7 DAT, A-1 12.5 g ai/ha, growth stage 15-16, height 50-60 cm
  % herbicidal activity: 80%
ZEAMX (Zea mays); 21 DAT, A-1 12.5 g ai/ha, growth stage 15-16, height 27-33 cm
  % Herbicidal activity: 35%
ZEAMX (Zea mays); 21 DAT, A-1 12.5 g ai/ha, growth stage 15-16, height 50-60 cm
  % herbicidal activity: 70%
ZEAMX (Zea mays); 28 DAT, A-1 12.5 g ai/ha, growth stage 15-16, height 50-60 cm
  % herbicidal activity: 50%
ZEAMX (Zea mays); 42 DAT, A-1 12.5 g ai/ha, growth stage 15-16, height 27-33 cm
  % Herbicidal activity: 20%
ZEAMX (Zea mays); [10]
  % Herbicidal activity: 30%
  % herbicidal activity: 20%
ZEAMX (Zea mays); Table 1.12, ZEAMX volunteer corn, A-1 50, B-2 400 g ai/ha, 21 DAT, water 100 l/ha
  % herbicidal activity: 83%
ZEAMX (Zea mays); Table 6.1, ZEAMX growth stage 15-16, height 50-60 cm, A-1 18, B-6 252 g ai/ha, 7 DAT, 200 l/ha water
  % herbicidal activity: 85%
[5]; 7 DAT, A-1 12.5 g ai/ha, growth stage 22-25, height 20-25 cm
  % herbicidal activity: 70%
[5]; 21 DAT, A-1 12.5 g ai/ha, growth stage 22-25, height 20-25 cm
  % herbicidal activity: 70%
[5]; Table 1.28, LOLMU growth stage 11-23, height 5-10 cm, A-1 25, B-2 400 g ai/ha, 28 DAT, water 200 l/ha
  % herbicidal activity: 43%
[5]; Table 6.1, LOLMU growth stage 22-25, height 20-25 cm, A-1 12.5, B-6 252 g ai/ha, 7 DAT, 200 l/ha water
  % herbicidal activity: 40%
[5]; Table 6.1, LOLMU growth stage 22-25, height 20-25 cm, A-1 18, B-6 252 g ai/ha, 7 DAT, 200 l/ha water
  % herbicidal activity: 50%
